From article PMC10817917, “Alkyl deoxyglycoside-polymyxin combinations against critical priority carbapenem-resistant gram-negative bacteria” (Scientific Reports, 2024)
Values after ≈ are worked out from the molar mass of the structure shown. “Also recorded” adds a separate entry of the source. Where two headings read alike, the source gives them in different places.

Columns and labels:
K. pneumoniae CQ4921 = assay: Broth microdilution MIC/MBC, glycosides with or without polymyxins; format: cell-based, Klebsiella pneumoniae; conditions: for MIC: Klebsiella pneumoniae, CQ4921
E. cloacae CQ1941 = assay: as above; format: cell-based; conditions: for MIC: Enterobacter cloacae, CQ1941
K. pneumoniae CQ1947 = assay: Broth microdilution MIC, glycosides with or without polymyxins; format: cell-based, Klebsiella pneumoniae; conditions: for MIC: Klebsiella pneumoniae, CQ1947
P. aeruginosa CQ4924 = assay: as above; format: cell-based, Pseudomonas aeruginosa; conditions: for MIC: Pseudomonas aeruginosa, CQ4924
E. coli K12 = conditions: cited from earlier work
E. coli K12 spheroplasts = conditions: only the IM left intact; cited from earlier work
B. cereus ATCC 14579 = conditions: cited from earlier work
[1] = PE vs phosphatidylcholine (PC); cited from earlier work
[2] = alone, read-out: MICA (MIC of each compound individually)
[3] = combination with the lowest FICI
[4] = compound + colistin, lowest FICI

MIC of colistin in combination with the compound (K. pneumoniae CQ4921; Cpd conc. 0.4 μg/mL, strain C): 0.5 µg/mL
MIC of colistin in combination with the compound (K. pneumoniae CQ4921; Cpd conc. 0.8 μg/mL, strain C): 0.5 µg/mL
MIC of colistin in combination with the compound (K. pneumoniae CQ4921; Cpd conc. 3.125 μg/mL, strain C): 0.25 µg/mL
MIC of colistin in combination with the compound (K. pneumoniae CQ4921; Cpd conc. 6.25 μg/mL, strain C): 0.25 µg/mL
MIC of colistin in combination with the compound (K. pneumoniae CQ4921; Cpd conc. 12.5 μg/mL, strain C): 0.25 µg/mL
MIC of colistin in combination with the compound (K. pneumoniae CQ4921; Cpd conc. […], strain C): 0.5 µg/mL
MIC (K. pneumoniae CQ4921; agent alone, no adjuvant (polymyxin conc. 0), strain C, read-out: MIC): > 100 µg/mL
MIC (K. pneumoniae CQ4921; [2]): > 100 µg/mL
MIC of compound in combination with PMB (K. pneumoniae CQ4921; PMB 0.5 μg/mL, strain C): ≤ 0.1 µg/mL
MIC of compound in combination with colistin (K. pneumoniae CQ4921; colistin 0.06 μg/mL, strain C): > 100 µg/mL
MIC of compound in combination with colistin (K. pneumoniae CQ4921; colistin 0.125 μg/mL, strain C): > 100 µg/mL
MIC of compound in combination with colistin (K. pneumoniae CQ4921; colistin 0.25 μg/mL, strain C): 3.1 µg/mL
MIC of compound in combination with colistin (K. pneumoniae CQ4921; colistin 0.5 μg/mL, strain C): 0.2 µg/mL
MICA(A + B) (MIC of compound in combination with colistin) (K. pneumoniae CQ4921; [3]): 3.125 µg/mL
MICB(A + B) (MIC of colistin in combination with compound) (K. pneumoniae CQ4921; [3]): 0.25 µg/mL
MIC of colistin in combination with the compound (E. cloacae CQ1941; Cpd conc. 0.4 μg/mL, strain D): 0.5 µg/mL
MIC of colistin in combination with the compound (E. cloacae CQ1941; Cpd conc. 0.8 μg/mL, strain D): 0.5 µg/mL
MIC of colistin in combination with the compound (E. cloacae CQ1941; Cpd conc. 3.125 μg/mL, strain D): 0.25 µg/mL
MIC of colistin in combination with the compound (E. cloacae CQ1941; Cpd conc. 6.25 μg/mL, strain D): 0.25 µg/mL
MIC of colistin in combination with the compound (E. cloacae CQ1941; Cpd conc. 12.5 μg/mL, strain D): 0.25 µg/mL
MIC of colistin in combination with the compound (E. cloacae CQ1941; Cpd conc. […], strain D): 0.25 µg/mL
MIC (E. cloacae CQ1941; agent alone, no adjuvant (polymyxin conc. 0), strain D, read-out: MIC): > 100 µg/mL
MIC (E. cloacae CQ1941; [2]): > 100 µg/mL
MIC of compound in combination with PMB (E. cloacae CQ1941; PMB 0.5 μg/mL, strain D): ≤ 0.1 µg/mL
MIC of compound in combination with colistin (E. cloacae CQ1941; colistin 0.06 μg/mL, strain D): > 100 µg/mL
MIC of compound in combination with colistin (E. cloacae CQ1941; colistin 0.125 μg/mL, strain D): > 100 µg/mL
MIC of compound in combination with colistin (E. cloacae CQ1941; colistin 0.25 μg/mL, strain D): 1.6 µg/mL
MIC of compound in combination with colistin (E. cloacae CQ1941; colistin 0.5 μg/mL, strain D): ≤ 0.1 µg/mL
MICA(A + B) (MIC of compound in combination with colistin) (E. cloacae CQ1941; [3]): 1.6 µg/mL
MICB(A + B) (MIC of colistin in combination with compound) (E. cloacae CQ1941; [3]): 0.25 µg/mL
MIC of colistin in combination with the compound (K. pneumoniae CQ1947; Cpd conc. 0.4 μg/mL, strain F): 0.5 µg/mL
MIC of colistin in combination with the compound (K. pneumoniae CQ1947; Cpd conc. 0.8 μg/mL, strain F): 0.5 µg/mL
MIC of colistin in combination with the compound (K. pneumoniae CQ1947; Cpd conc. 3.125 μg/mL, strain F): 0.5 µg/mL
MIC of colistin in combination with the compound (K. pneumoniae CQ1947; Cpd conc. 6.25 μg/mL, strain F): 0.5 µg/mL
MIC of colistin in combination with the compound (K. pneumoniae CQ1947; Cpd conc. 12.5 μg/mL, strain F): 0.5 µg/mL
MIC of colistin in combination with the compound (K. pneumoniae CQ1947; Cpd conc. […], strain F): 0.5 µg/mL
MIC (K. pneumoniae CQ1947; agent alone, no adjuvant (polymyxin conc. 0), strain F, read-out: MIC): > 100 µg/mL
MIC (K. pneumoniae CQ1947; [2]): > 100 µg/mL
MIC of compound in combination with PMB (K. pneumoniae CQ1947; PMB 0.25 μg/mL, strain F): > 100 µg/mL
MIC of compound in combination with PMB (K. pneumoniae CQ1947; PMB 0.5 μg/mL, strain F): 1.6 µg/mL
MIC of compound in combination with colistin (K. pneumoniae CQ1947; colistin 0.06 μg/mL, strain F): > 100 µg/mL
MIC of compound in combination with colistin (K. pneumoniae CQ1947; colistin 0.125 μg/mL, strain F): > 100 µg/mL
MIC of compound in combination with colistin (K. pneumoniae CQ1947; colistin 0.25 μg/mL, strain F): > 100 µg/mL
MIC of compound in combination with colistin (K. pneumoniae CQ1947; colistin 0.5 μg/mL, strain F): ≤ 0.1 µg/mL
MICA(A + B) (MIC of compound in combination with colistin) (K. pneumoniae CQ1947; [3]): 0.4 µg/mL
MICB(A + B) (MIC of colistin in combination with compound) (K. pneumoniae CQ1947; [3]): 0.5 µg/mL
MIC of colistin in combination with the compound (P. aeruginosa CQ4924; Cpd conc. 0.4 μg/mL, strain H): > 0.5 µg/mL
MIC of colistin in combination with the compound (P. aeruginosa CQ4924; Cpd conc. 0.8 μg/mL, strain H): > 0.5 µg/mL
MIC of colistin in combination with the compound (P. aeruginosa CQ4924; Cpd conc. 3.125 μg/mL, strain H): 0.5 µg/mL
MIC of colistin in combination with the compound (P. aeruginosa CQ4924; Cpd conc. 6.25 μg/mL, strain H): 0.5 µg/mL
MIC of colistin in combination with the compound (P. aeruginosa CQ4924; Cpd conc. 12.5 μg/mL, strain H): 0.5 µg/mL
MIC of colistin in combination with the compound (P. aeruginosa CQ4924; Cpd conc. […], strain H): > 0.5 µg/mL
MIC of compound in combination with PMB (P. aeruginosa CQ4924; PMB 0.25 μg/mL, strain H): > 100 µg/mL
MIC of compound in combination with PMB (P. aeruginosa CQ4924; PMB 0.5 μg/mL, strain H): > 100 µg/mL
MIC (P. aeruginosa CQ4924; agent alone, no adjuvant (polymyxin conc. 0), strain H, read-out: MIC): > 100 µg/mL
MIC (P. aeruginosa CQ4924; [2]): > 100 µg/mL
MIC of compound in combination with colistin (P. aeruginosa CQ4924; colistin 0.06 μg/mL, strain H): > 100 µg/mL
MIC of compound in combination with colistin (P. aeruginosa CQ4924; colistin 0.125 μg/mL, strain H): > 100 µg/mL
MIC of compound in combination with colistin (P. aeruginosa CQ4924; colistin 0.25 μg/mL, strain H): > 100 µg/mL
MIC of compound in combination with colistin (P. aeruginosa CQ4924; colistin 0.5 μg/mL, strain H): 3.1 µg/mL
MICA(A + B) (MIC of compound in combination with colistin) (P. aeruginosa CQ4924; [3]): 3.125 µg/mL
MICB(A + B) (MIC of colistin in combination with compound) (P. aeruginosa CQ4924; [3]): 0.5 µg/mL
Structure (SMILES): CCCCCCCCCCCCO[C@H]1C[C@H](O)[C@@H](O)[C@H](C)O1 [Compound 3, dodecyl 2,6-dideoxy-α-L-arabino-hexopyranoside]
Interpretation (of FICI) (K. pneumoniae CQ4921; compound + colistin): Additive (from 0.5 to 1.0 were additive)
FICI (K. pneumoniae CQ4921; [4]): 0.52
Interpretation (of FICI) (E. cloacae CQ1941; compound + colistin): Additive (from 0.5 to 1.0 were additive)
FICI (E. cloacae CQ1941; [4]): 0.51
Interpretation (of FICI) (K. pneumoniae CQ1947; compound + colistin): Indifferent (1.0 to 4.0 were indifferent)
FICI (K. pneumoniae CQ1947; [4]): 1.002
Interpretation (of FICI) (P. aeruginosa CQ4924; compound + colistin): Additive (from 0.5 to 1.0 were additive)
FICI (P. aeruginosa CQ4924; [4]): 0.52
MIC (E. coli K12): 256 µg/mL (≈ 809 µM)
MIC (E. coli K12 spheroplasts): 4 µg/mL (≈ 12.6 µM)
MIC (B. cereus ATCC 14579): 16 µg/mL (≈ 50.6 µM)
interaction with phosphatidylethanolamine (PE) [1]: selectively interact with phosphatidylethanolamine (PE); also recorded: Confirmed PE binder
